Experiments:
Chang cells = assay: GSK-3 cellular assay (C2): 14C-D-glucose incorporation into glycogen; format: cell-based; settings: increase in D-glucose incorporation into glycogen, test concentration of 10^−6 M
Protocol: Test compounds were tested for their ability to increase the incorporation of ^14C-D-glucose into glycogen in living cells. To do this, Chang cells (360,000 cells/well) were cultured in 0.5 ml of MEM Rega 3 medium supplemented with 10% fetal calf serum, 1% L-glutamine and 2% sodium carbonate. After 3 days, cells were washed with 0.5 ml of phosphate-buffered saline and overlayed with 1 ml of serum- and glucose-free DMEM medium. Then, 2 μl of compound in DMSO and 50 μl substrate (3 mM glucose and 0.5 μCi ^14C-D-glucose were added and the cultures were incubated for 90 min. Cells were then extracted with 0.5 ml of 20% KOH for 60 min at 37° C. and the cell lysates were transferred to 10 ml tubes containing 300 μl of 1 mg/ml glycogen as […]. Following the addition of 2 ml ethanol, total glycogen was precipitated overnight at −20° C. and the precipitates were recovered by centrifugation. Precipitates were then resuspended in 1 ml of water and transferred to scintillation counter vials. and the amount of ^14C-D-glucose incorporation into glycogen was measured by scintillation counting. Scores for the compounds according to the invention, were obtained at a test concentration of 10^−6 M. Score 1=10-30% increase, Score 2=30-60% increase, Score 3=60-80% increase and Score 4=>80% increase in D-glucose incorporation.

Aurora-A (h) = biological target: T1, Aurora-A (h) (Homo sapiens, UniProt O14965); assay: Kinase profiling C3.1 Aurora-A human; format: biochemical; settings: test concentration of 10^−6 M
T1 sequence (O14965 1-403): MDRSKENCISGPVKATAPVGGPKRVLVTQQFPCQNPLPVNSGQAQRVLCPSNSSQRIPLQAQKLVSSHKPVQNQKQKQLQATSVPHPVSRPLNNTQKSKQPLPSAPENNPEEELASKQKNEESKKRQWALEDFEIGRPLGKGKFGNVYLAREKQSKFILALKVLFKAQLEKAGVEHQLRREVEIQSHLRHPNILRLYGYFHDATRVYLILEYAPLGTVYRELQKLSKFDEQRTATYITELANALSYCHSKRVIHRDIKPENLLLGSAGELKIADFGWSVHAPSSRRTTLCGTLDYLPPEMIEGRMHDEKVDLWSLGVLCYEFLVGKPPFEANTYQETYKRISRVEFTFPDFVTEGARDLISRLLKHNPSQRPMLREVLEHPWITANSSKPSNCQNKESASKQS
Protocol: (§1) The in vitro inhibition of a panel of kinases was assessed using either the glass-fiber filter technology as described by Davies, S. P. et al., Biochem J. (2000), 351; p. 95-105. In the glass-fiber filter technology the activity of the kinase of interest is measured using an appropriate substrate that is incubated with the aforementioned kinase protein in the presence of (^33P) radiolabeled ATP. (^33P) Phosporylation of the substrate is subsequently measured as radioactivity bound on a glassfiber-filter.
(§2) All kinases are pre-diluted to a 10× working concentration prior to addition into the assay. The composition of the dilution buffer for each kinase is detailed below.
(§3) All substrates are dissolved and diluted to working stocks in de-ionised water, apart from histone H1 that is stored in 10× working stock in 20 mM MOPS pH 7.4.
(§4) In a final reaction volume of 25 μl, Aurora-A (h) (5-10 mU) is incubated with 8 mM MOPS pH 7.0, 0.2 mM EDTA, 200 μM LRRASLG (Kemptide), 10 mM MgAcetate and [γ-^33P-ATP] (specific activity approx. 500 cpm/pmol, concentration as required). The reaction is initiated by the addition of the MgATP mix. After incubation for 40 minutes at room temperature, the reaction is stopped by the addition of 5 μl of a 3% phosphoric acid solution. 10 μl of the reaction is then spotted onto a P30 filtermat and washed three times for 5 minutes in 50 mM phosphoric acid and once in methanol prior to drying and scintillation counting.

CDK2/cyclinA (h) = CDK2/cyclinA (h) (Homo sapiens, UniProt P24941); assay: Kinase profiling C3.3 CDK2/cyclinA human; format: biochemical; settings: test concentration of 10^−6 M
Outline: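 Human CDK2/cyclinA (5-10 mU) phosphorylates 0.1 mg/ml histone H1 in 8 mM MOPS pH 7.0, EDTA, 10 mM Mg acetate with [γ-33P]ATP, 40 min at room temperature. After phosphoric acid stop, filter-bound 33P counted by scintillation.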

cSRC (h) = cSRC (h) (Homo sapiens, UniProt P12931); assay: Kinase profiling C3.9 cSRC human; format: biochemical; settings: test concentration of 10^−6 M
Chain of cSRC (h) (P12931 whole entry): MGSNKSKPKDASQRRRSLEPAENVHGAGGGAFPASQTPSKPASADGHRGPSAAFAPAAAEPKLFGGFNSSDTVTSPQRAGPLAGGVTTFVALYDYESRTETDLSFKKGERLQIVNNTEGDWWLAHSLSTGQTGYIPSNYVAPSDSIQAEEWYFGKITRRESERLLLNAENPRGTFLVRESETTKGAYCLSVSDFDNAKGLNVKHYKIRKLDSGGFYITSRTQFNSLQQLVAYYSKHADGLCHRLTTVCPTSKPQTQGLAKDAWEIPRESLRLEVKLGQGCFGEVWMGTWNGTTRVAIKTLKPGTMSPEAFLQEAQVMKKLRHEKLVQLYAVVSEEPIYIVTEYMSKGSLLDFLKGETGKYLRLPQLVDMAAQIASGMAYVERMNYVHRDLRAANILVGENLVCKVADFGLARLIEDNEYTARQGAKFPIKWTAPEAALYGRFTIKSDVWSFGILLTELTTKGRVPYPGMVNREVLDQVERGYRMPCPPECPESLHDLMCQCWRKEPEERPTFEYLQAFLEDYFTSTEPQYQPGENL
Protocol: as §1, §2, §3
In a final reaction volume of 25 μl, cSRC (h) (5-10 mU) is incubated with 8 mM MOPS pH 7.0, 0.2 mM EDTA, 250 μM KVEKIGEGTYGVVYK (Cdc2 peptide), 10 mM MgAcetate and [γ-^33P-ATP] (specific activity approx. 500 cpm/pmol, concentration as required). The reaction is initiated by the addition of the MgATP mix. After incubation for 40 minutes at room temperature, the reaction is stopped by the addition of 5 μl of a 3% phosphoric acid solution.
10 μl of the reaction is then spotted onto a P30 filtermat and washed three times for 5 minutes in 75 mM phosphoric acid and once in methanol prior to drying and scintillation counting.

Yes (h) = Yes (h) (Homo sapiens, UniProt P07947); assay: Kinase profiling C3.10 Yes human; format: biochemical; settings: test concentration of 10^−6 M
Chain of Yes (h) (P07947 whole entry): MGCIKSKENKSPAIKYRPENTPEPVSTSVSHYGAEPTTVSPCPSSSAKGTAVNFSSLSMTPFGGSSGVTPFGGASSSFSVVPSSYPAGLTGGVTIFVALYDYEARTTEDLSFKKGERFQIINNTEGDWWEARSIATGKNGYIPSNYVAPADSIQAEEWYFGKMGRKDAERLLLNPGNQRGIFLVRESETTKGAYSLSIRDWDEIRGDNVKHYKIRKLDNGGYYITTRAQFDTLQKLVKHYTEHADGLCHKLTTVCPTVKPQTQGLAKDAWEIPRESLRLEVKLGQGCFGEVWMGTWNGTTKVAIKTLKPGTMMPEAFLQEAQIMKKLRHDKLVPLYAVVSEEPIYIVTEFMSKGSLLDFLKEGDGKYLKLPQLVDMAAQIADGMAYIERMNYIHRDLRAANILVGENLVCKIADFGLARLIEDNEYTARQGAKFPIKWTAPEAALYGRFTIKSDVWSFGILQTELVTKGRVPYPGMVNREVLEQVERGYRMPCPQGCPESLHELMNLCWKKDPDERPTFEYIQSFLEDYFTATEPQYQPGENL
Protocol: as §1, §2, §3
as §4, with “μl, Yes” for “μl, Aurora-A”, “EDTA, 0.1 mg/ml poly(Glu, Tyr) 4:1,” for “EDTA, 200 μM LRRASLG (Kemptide),”, “a Filtermat A” for “a P30 filtermat”, “in 75” for “in 50”

C3.1 score (Aurora-A (h)) | C3.3 score (CDK2/cyclinA (h)) | C3.9 score (cSRC (h)) | C3.10 score (Yes (h)) | SMILES | C2 Score (Chang cells)
1 (Score 1 = 10-30% inhibition) | 4 (Score 4 = >80% inhibition) | 2 (Score 2 = 30-60% inhibition) | 2 (Score 2 = 30-60% inhibition) | CN1CC(=O)NCCCc2cc(ccn2)-c2ncnc(n2)Nc2cccc(c2)C1 [Compound 10] | 4 (Score 4=>80% increase in D-glucose incorporation)
1 (Score 1 = 10-30% inhibition) | 4 (Score 4 = >80% inhibition) | 2 (Score 2 = 30-60% inhibition) | 2 (Score 2 = 30-60% inhibition) | O=C1NCCCc2cc(ccn2)-c2ncnc(n2)Nc2cccc(c2)CN2CCCC12 (stereo not drawn) [Compound 12] | 
 | 4 (Score 4 = >80% inhibition) |  |  | O=C1CN2CCN(CC2)Cc2cccc(c2)Nc2ncnc(n2)-c2ccnc(c2)CCCN1 [Compound 9] | 4 (Score 4=>80% increase in D-glucose incorporation)
 | 4 (Score 4 = >80% inhibition) |  |  | CCN1CC(=O)NCCCc2cc(ccn2)-c2ncnc(n2)Nc2cc(Cl)cc(c2)C1 [Compound 34] | 4 (Score 4=>80% increase in D-glucose incorporation)
1 (Score 1 = 10-30% inhibition) | 4 (Score 4 = >80% inhibition) | 3 (Score 3 = 60-80% inhibition) | 3 (Score 3 = 60-80% inhibition) | CN1CC(=O)NCC#Cc2cc(ccn2)-c2ncnc(n2)Nc2cccc(c2)C1 [Compound 1] | 3 (Score 3=60-80% increase)
1 (Score 1 = 10-30% inhibition) | 4 (Score 4 = >80% inhibition) | 1 (Score 1 = 10-30% inhibition) | 1 (Score 1 = 10-30% inhibition) | O=C1CN2CCN(CC2)Cc2cccc(c2)Nc2ncnc(n2)-c2ccnc(c2)CCCN1 [Compound 36] | 4 (Score 4=>80% increase in D-glucose incorporation)
2 (Score 2 = 30-60% inhibition) | 4 (Score 4 = >80% inhibition) | 4 (Score 4 = >80% inhibition) | 4 (Score 4 = >80% inhibition) | CN1CC(=O)NC/C(Cl)=C/c2cc(ccn2)-c2ncnc(n2)Nc2cccc(c2)C1 [Compound 2] | 4 (Score 4=>80% increase in D-glucose incorporation)
2 (Score 2 = 30-60% inhibition) | 4 (Score 4 = >80% inhibition) | 2 (Score 2 = 30-60% inhibition) | 1 (Score 1 = 10-30% inhibition) | O=C1NCCCc2cc(ccn2)-c2ncnc(n2)Nc2cccc(c2)CN2C[C@H](O)C[C@@H]12 [Compound 14] | 
 | 4 (Score 4 = >80% inhibition) |  |  | CCN1CCCc2cc(ccn2)-c2ncnc(n2)Nc2cccc(c2)CCNC(=O)C1 [Compound 30] | 4 (Score 4=>80% increase in D-glucose incorporation)
1 (Score 1 = 10-30% inhibition) | 4 (Score 4 = >80% inhibition) | 2 (Score 2 = 30-60% inhibition) | 2 (Score 2 = 30-60% inhibition) | O=C1CCN2CCN(CC2)Cc2cccc(c2)Nc2ncnc(n2)-c2ccnc(c2)CCCN1 [Compound 35] | 4 (Score 4=>80% increase in D-glucose incorporation)
 | 4 (Score 4 = >80% inhibition) |  |  | CN1CC(=O)NCCCc2cc(ccn2)-c2ncnc(n2)Nc2cc(Cl)cc(c2)C1 [Compound 33] | 4 (Score 4=>80% increase in D-glucose incorporation)
1 (Score 1 = 10-30% inhibition) | 2 (Score 2 = 30-60% inhibition) | 1 (Score 1 = 10-30% inhibition) | 1 (Score 1 = 10-30% inhibition) | O=C1NCCCc2cc(ccn2)-c2ncnc(n2)Nc2cccc(c2)CN2CCCC1C2 (stereo not drawn) [Compound 15] | 
1 (Score 1 = 10-30% inhibition) | 1 (Score 1 = 10-30% inhibition) | 1 (Score 1 = 10-30% inhibition) | 1 (Score 1 = 10-30% inhibition) | CN1CCN(CCN2CCC(=O)NCCCc3cc(ccn3)-c3ncnc(n3)Nc3cccc(c3)C2)CC1 [Compound 11] | 
 | 4 (Score 4 = >80% inhibition) |  |  | O=C1CN2CCN(CC2)Cc2cc(Cl)cc(c2)Nc2ncnc(n2)-c2ccnc(c2)CCCN1 [Compound 41] | 4 (Score 4=>80% increase in D-glucose incorporation)
1 (Score 1 = 10-30% inhibition) | 4 (Score 4 = >80% inhibition) | 2 (Score 2 = 30-60% inhibition) | 2 (Score 2 = 30-60% inhibition) | CN1CCC(=O)NCCCc2cc(ccn2)-c2ncnc(n2)Nc2cccc(c2)C1 [Compound 3] | 
 | 4 (Score 4 = >80% inhibition) |  |  | CN1CC(=O)NCCCc2cc(ccn2)-c2ncnc(n2)Nc2cccc(c2)C1 [Compound 8] | 4 (Score 4=>80% increase in D-glucose incorporation)
 | 4 (Score 4 = >80% inhibition) |  |  | O=C1NCCCc2cccc(c2)-c2ncnc(n2)Nc2cccc(c2)CN[C@H]1CO [Compound 46] | 4 (Score 4=>80% increase in D-glucose incorporation)
1 (Score 1 = 10-30% inhibition) | 3 (Score 3 = 60-80% inhibition) | 1 (Score 1 = 10-30% inhibition) | 1 (Score 1 = 10-30% inhibition) | O=C1NCCCc2cncc(c2)-c2ncnc(n2)Nc2cccc(c2)CN[C@H]1CO [Compound 81] | 4 (Score 4=>80% increase in D-glucose incorporation)
 | 3 (Score 3 = 60-80% inhibition) |  | 1 (Score 1 = 10-30% inhibition) | O=C1CN2CCN(CC2)Cc2cccc(c2)Nc2ncnc(n2)-c2ccc(F)c(c2)CCCN1 [Compound 66] | 4 (Score 4=>80% increase in D-glucose incorporation)
2 (Score 2 = 30-60% inhibition) | 2 (Score 2 = 30-60% inhibition) | 2 (Score 2 = 30-60% inhibition) | 1 (Score 1 = 10-30% inhibition) | CN1CCCC(=O)NCCCc2cc(ccn2)-c2ncnc(n2)Nc2cccc(c2)C1 [Compound 13] | 
 | 4 (Score 4 = >80% inhibition) | 1 (Score 1 = 10-30% inhibition) | 2 (Score 2 = 30-60% inhibition) | CCN1CC(=O)NCCCc2cccc(c2)-c2ncnc(n2)Nc2cccc(c2)C1 [Compound 54] | 4 (Score 4=>80% increase in D-glucose incorporation)
